Patent US20230390319A1, “INTERFERON GENE STIMULATOR COMPOSITION COMPRISING INDOLIZINE DERIVATIVE AS ACTIVE INGREDIENT” (AJOU UNIVERSITY INDUSTRY-ACADEMIC COOPERATION FOUNDATION, priority 2020, published 2023)
“And” between values parts separate entries of the source, which are not always exact repeats. Identical values can stand only once. Like-named read-outs stand apart in the source and are kept apart here.

Test: PK profiles after IV and PO administration to BALB/c mice
Assay type: in vivo
Details: for MRT last: read-out: MRT(0-t); for MRT inf: read-out: MRT(0-∞)
Description: The pharmacokinetics and oral bioavailability of Compound 42 were investigated in mice following single intravenous (IV) injection and oral administration (PO).

[1] = BALB/c, mouse, blood, po, 20 mg/kg, PO 20.0 mg/kg, individual animals
[2] = BALB/c, mouse, blood, po, 20 mg/kg, PO 20.0 mg/kg, mean n=3
[3] = IV 5.0 mg/kg, individual animals, 5 mg/kg
[4] = PO 20.0 mg/kg, individual animals, 20 mg/kg

## CC(=O)c1ccc(-c2cc(C(=O)c3ccc(C(F)(F)F)cc3)n3ccccc23)cc1 [Compound 42]
BALB/c, mouse, blood, po, 20 mg/kg, PO 20 mg/kg, 3.00 h, individual animals 201-203, read-out: concentration in blood
  concentration at 3 h: 149 ng/mL
BALB/c, mouse, blood, po, 20 mg/kg, PO 20 mg/kg, 3.00 h, mean, read-out: concentration in blood, Mean PO
  concentration at 3 h: 161 ng/mL
BALB/c, mouse, blood, po, 20 mg/kg, PO 20 mg/kg, 6.00 h, individual animals 201-203, read-out: concentration in blood
  concentration at 6 h: 98.7 ng/mL
BALB/c, mouse, blood, po, 20 mg/kg, PO 20 mg/kg, 6.00 h, mean, read-out: concentration in blood, Mean PO
  concentration at 6 h: 111 ng/mL
BALB/c, mouse, blood, po, 20 mg/kg, PO 20 mg/kg, 24.00 h, individual animals 201-203, read-out: concentration in blood
  concentration at 24 h: 39 ng/mL
BALB/c, mouse, blood, po, 20 mg/kg, PO 20 mg/kg, 24.00 h, mean, read-out: concentration in blood, Mean PO
  concentration at 24 h: 42.4 ng/mL
BALB/c, mouse, blood, po, 20 mg/kg, PO 20.0 mg/kg, individual animals, read-out: AUC(0-t)
  AUC(0-t): 2100 ng·h/mL
BALB/c, mouse, blood, po, 20 mg/kg, PO 20.0 mg/kg, individual animals, read-out: AUC(0-∞)
  AUC(0-inf): 2750 ng·h/mL
BALB/c, mouse, blood, po, 20 mg/kg, PO 20.0 mg/kg, individual animals, read-out: Cmax
  Cmax: 211 ng/mL
[1]
  MRT last: 7.66 h
  MRT inf: 15.5 h
BALB/c, mouse, blood, po, 20 mg/kg, PO 20.0 mg/kg, individual animals, read-out: T1/2 (converted)
  half-life: 11.6 h
BALB/c, mouse, blood, po, 20 mg/kg, PO 20.0 mg/kg, mean n=3, read-out: AUC(0-t)
  AUC(0-t): 2320 ng·h/mL
BALB/c, mouse, blood, po, 20 mg/kg, PO 20.0 mg/kg, mean n=3, read-out: AUC(0-∞)
  AUC(0-inf): 3030 ng·h/mL
BALB/c, mouse, blood, po, 20 mg/kg, PO 20.0 mg/kg, mean n=3, read-out: Cmax
  Cmax: 225 ng/mL
[2]
  MRT last: 7.64 h
  MRT inf: 15.4 h
BALB/c, mouse, blood, po, 20 mg/kg, PO 20.0 mg/kg, mean n=3, read-out: T1/2 (converted)
  half-life: 11.6 h
BALB/c, mouse, blood, po, 20 mg/kg, PO administration of 20 mpk, read-out: AUC∞
  AUC(0-inf): 3030 ng·h/mL
BALB/c, mouse, blood, po, 20 mg/kg, PO administration of 20 mpk, read-out: Cmax
  Cmax: 224 ng/mL
BALB/c, mouse, blood, po, 20 mg/kg, PO administration of 20 mpk, read-out: half-life (converted)
  half-life: 11.6 h
BALB/c, mouse, blood, IV 5.0 mg/kg, mean n=3
  Tmax: 0.083 h
BALB/c, mouse, blood, PO 20.0 mg/kg, individual animals
  Tmax: 1 h
IV 5 mg/kg, 0.083 h, individual animals 101-103, 5 mg/kg
  concentration in blood: 2724.650 ng/mI and 2922.650 ng/mI
IV 5 mg/kg, 0.25 h, individual animals 101-103, 5 mg/kg
  concentration in blood: 1228.390 ng/mI and 1506.240 ng/mI
IV 5 mg/kg, 0.50 h, individual animals 101-103, 5 mg/kg
  concentration in blood: 741.777 ng/mI and 916.427 ng/mI
IV 5 mg/kg, 1.00 h, individual animals 101-103, 5 mg/kg
  concentration in blood: 319.272 ng/mI and 350.728 ng/mI
IV 5 mg/kg, 4.00 h, individual animals 101-103, 5 mg/kg
  concentration in blood: 129.441 ng/mI and 94.754 ng/mI
IV 5 mg/kg, 24.00 h, individual animals 101-103, 5 mg/kg
  concentration in blood: 45.260 ng/mI and 30.044 ng/mI
[3]
  AUCINF_obs AUC(0-∞): 4161.11 ng·h/mL and 3533.38 ng·h/mL
  AUClast AUC(0-t): 3542.76 ng·h/mL and 3195.55 ng·h/mL
  C0: 4048.20 ng/mL and 4063.09 ng/mL
  Cl_obs Cl: 20.0267 mL/min/kg and 23.5847 mL/min/kg
  Cmax: 2724.65 ng/mL and 2922.65 ng/mL
  HL_Lambda_z T1/2: 9.47 h and 7.79 h
  MRTINF_obs MRT(0-∞): 9.83 h and 6.90 h
  MRTlast MRT(0-t): 4.97 h and 3.90 h
  Vss_obs Vss: 11.80918 L/kg and 9.76009 L/kg
  Vz_obs Vz: 16.41627 L/kg and 15.912 L/kg
PO 20 mg/kg, 0.25 h, individual animals 201-203, 20 mg/kg
  concentration in blood: 114.648 ng/mI and 79.841 ng/mI
PO 20 mg/kg, 0.50 h, individual animals 201-203, 20 mg/kg
  concentration in blood: 164.520 ng/mI and 165.563 ng/mI
PO 20 mg/kg, 1.00 h, individual animals 201-203, 20 mg/kg
  concentration in blood: 232.437 ng/mI and 230.000 ng/mI
PO 20 mg/kg, 3.00 h, individual animals 201-203, 20 mg/kg
  concentration in blood: 155.307 ng/mI and 179.295 ng/mI
PO 20 mg/kg, 6.00 h, individual animals 201-203, 20 mg/kg
  concentration in blood: 123.919 ng/mI and 111.651 ng/mI
PO 20 mg/kg, 24.00 h, individual animals 201-203, 20 mg/kg
  concentration in blood: 37.325 ng/mI and 50.885 ng/mI
[4]
  AUC(0-t): 2406.25 ng·h/mL and 2448.08 ng·h/mL
  AUC(0-∞): 2959.50 ng·h/mL and 3385.50 ng·h/mL
  Cmax: 232.44 ng/mL and 230.00 ng/mL
  F: 15.87% and 18.22% and 18.54%
  MRT(0-t): 7.22 h and 8.04 h
  MRT(0-∞): 13.12 h and 17.56 h
  T1/2: 10.27 h and 12.77 h
PO 20.0 mg/kg, mean n=3
  F: 17.55%
